Legend:
[1] = test system: cAMP-linked metabotropic glutamate receptors; test: agonism of glutamate at cAMP-linked metabotropic glutamate receptors; type: cell-based; conditions: result in words only
[2] = test system: metabotropic glutamate receptors; test: displacement of 1S,3R-ACPD-sensitive [3H]glutamate binding to rat brain cell membranes; conditions: crude membranes of rat forebrain
Protocol: The binding of [^3 H]glutamate was conducted with crude membranes of rat forebrain as described by Schoepp and True. Schoepp and True, Neuroscience Lett., 145, 100-104 (1992) and Wright et al., J. Neurochemistry 63:938-945 (1994).

Compound	agonist activity at cAMP-linked metabotropic glutamate receptors [1]	IC50 [2] [nM]
NC1(C(=O)O)COC2C(C(=O)O)C21 (stereo not drawn) [Example 1, 1SR,4SR,5RS,6SR-4-Amino-2-Oxabicyclo[3.1.0]hexane-4,6-dicarboxylic Acid]	potent agonists	55
NC1(C(=O)O)COC2C(C(=O)O)C21 (single isomer, unassigned) [Example 2(g)]	potent agonists	
NC1(C(=O)O)CSC2C(C(=O)O)C21 (stereo not drawn) [Example 4, 1SR,4RS,5RS,6RS-4-Amino-2-Thiabicyclo[3.1.0]hexane-4,6-dicarboxylic Acid]	potent agonists	

From US5688826A, “Excitatory amino acid derivatives” (Eli Lilly and Company, priority 1996, dated 1997)
